Assay results reported in PubChem BioAssay AID330 (DTP/NCI, 2004).
Several values for one entry are separate records, joined by “and”; a condition that tells them apart may be missing. Equal values may be shown once. Toxic doses and inconclusive results are not listed.

System: P388 leukemia ip, CD2F1 mice, survival T/C
Assay: NCI In Vivo Anticancer Drug Screen. Data for tumor model P388 Leukemia (intraperitoneal) in CD2F1 (CDF1) mice
Conditions: endpoint: median survival time, higher = longer survival
Method in brief: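 Mice carrying the transplanted tumor received test compound or vehicle. Survival was recorded in each group, and the value is the treated-group measurement divided by that of the vehicle-treated control group.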

[1] = dose: 25.0 mg/kg/injection, schedule: Q01DX005 (ip), vehicle: saline with Tween-80
[2] = dose: 50.0 mg/kg/injection, schedule: Q01DX005 (ip), vehicle: saline with Tween-80
[3] = dose: 100.0 mg/kg/injection, schedule: Q01DX005 (ip), vehicle: saline with Tween-80
[4] = dose: 50.0 mg/kg/injection, schedule: Q01DX009 (ip), vehicle: Klucel (hydroxypropylcellulose) (HPC)
[5] = dose: 100.0 mg/kg/injection, schedule: Q01DX009 (ip), vehicle: Klucel (hydroxypropylcellulose) (HPC)
[6] = dose: 50.0 mg/kg/injection, schedule: Q01DX005 (ip), vehicle: Klucel (hydroxypropylcellulose) (HPC)
[7] = dose: 100.0 mg/kg/injection, schedule: Q01DX005 (ip), vehicle: Klucel (hydroxypropylcellulose) (HPC)
[8] = dose: 200.0 mg/kg/injection, schedule: Q01DX005 (ip), vehicle: Klucel (hydroxypropylcellulose) (HPC)
[9] = dose: 50.0 mg/kg/injection, schedule: Q01DX009 (ip), vehicle: saline with Tween-80
[10] = dose: 100.0 mg/kg/injection, schedule: Q01DX009 (ip), vehicle: saline with Tween-80
[11] = dose: 200.0 mg/kg/injection, schedule: Q01DX009 (ip), vehicle: saline with Tween-80
[12] = dose: 60.0 mg/kg/injection, schedule: Q01DX005 (ip), vehicle: saline with Tween-80
[13] = dose: 120.0 mg/kg/injection, schedule: Q01DX005 (ip), vehicle: saline with Tween-80
[14] = dose: 240.0 mg/kg/injection, schedule: Q01DX005 (ip), vehicle: saline with Tween-80

## OC1COCC2N3C(=NN12)Sc1ccccc13 (stereo not given)
dose: 100.0 mg/kg/injection, schedule: Q04DX003 (ip), vehicle: saline
  T/C: 105 % of control
dose: 200.0 mg/kg/injection, schedule: Q04DX003 (ip), vehicle: saline
  T/C: 107 % of control
dose: 400.0 mg/kg/injection, schedule: Q04DX003 (ip), vehicle: saline
  T/C: 98 % of control

## Cc1cc(=O)[nH]c2c1ccc1ccccc12
dose: 100.0 mg/kg/injection, schedule: Q04DX002 (ip), vehicle: saline with Tween-80
  T/C: 95 % of control
dose: 200.0 mg/kg/injection, schedule: Q04DX002 (ip), vehicle: saline with Tween-80
  T/C: 93 % of control
dose: 400.0 mg/kg/injection, schedule: Q04DX002 (ip), vehicle: saline with Tween-80
  T/C: 99 % of control

## O=C1C=CC(=O)N1C(=O)NCNC(=O)N1C(=O)C=CC1=O
[1]
  T/C: 99 % of control and 107 % of control
[2]
  T/C: 103 % of control (2×) and 106 % of control
[3]
  T/C: 103 % of control and 121 % of control

## CCn1c2ccccc2c2cc(N=Nc3ccc(O)c4ccccc34)ccc21
[4]
  T/C: 105 % of control
[5]
  T/C: 101 % of control and 106 % of control
dose: 200.0 mg/kg/injection, schedule: Q01DX009 (ip), vehicle: Klucel (hydroxypropylcellulose) (HPC)
  T/C: 100 % of control and 102 % of control

## COc1cc(OC)c2c(c1)Oc1cc(OC)cc(OC)c1C2
[6]
  T/C: 97 % of control
[7]
  T/C: 96 % of control
[8]
  T/C: 95 % of control

## C[N+](C)(C)NP(=O)(N[N+](C)(C)C)Oc1ccccc1
dose: 60.0 mg/kg/injection, schedule: Q01DX005 (ip), vehicle: saline
  T/C: 100 % of control and 110 % of control and 93 % of control
dose: 120.0 mg/kg/injection, schedule: Q01DX005 (ip), vehicle: saline
  T/C: 103 % of control and 110 % of control (2×)
dose: 240.0 mg/kg/injection, schedule: Q01DX005 (ip), vehicle: saline
  T/C: 100 % of control and 104 % of control
dose: 480.0 mg/kg/injection, schedule: Q01DX005 (ip), vehicle: saline
  T/C: 104 % of control and 95 % of control

## O=S(=O)(O)CNc1ccc(Cl)cc1
[9]
  T/C: 113 % of control
[10]
  T/C: 113 % of control
[11]
  T/C: 106 % of control

## CN(c1ccccc1)C1C2=C(CCCC2)OC(=O)C12SCCCS2 (stereo not given)
dose: 25.0 mg/kg/injection, schedule: Q04DX003 (ip), vehicle: saline with Tween-80
  T/C: 94 % of control
dose: 50.0 mg/kg/injection, schedule: Q04DX003 (ip), vehicle: saline with Tween-80
  T/C: 96 % of control
dose: 100.0 mg/kg/injection, schedule: Q04DX003 (ip), vehicle: saline with Tween-80
  T/C: 100 % of control and 98 % of control
dose: 132.0 mg/kg/injection, schedule: Q04DX003 (ip), vehicle: saline with Tween-80
  T/C: 98 % of control
dose: 200.0 mg/kg/injection, schedule: Q04DX003 (ip), vehicle: saline with Tween-80
  T/C: 106 % of control
dose: 300.0 mg/kg/injection, schedule: Q04DX003 (ip), vehicle: saline with Tween-80
  T/C: 119 % of control
dose: 400.0 mg/kg/injection, schedule: Q04DX003 (ip), vehicle: saline with Tween-80
  T/C: 105 % of control and 98 % of control

## COc1ccc(C(c2c(O)c3ccccc3oc2=O)c2c(O)c3ccccc3oc2=O)c(OC)c1
[12]
  T/C: 106 % of control
[13]
  T/C: 98 % of control
[14]
  T/C: 94 % of control

## C[C@H]1CC(c2ccc(Cl)cc2)[C@@H](c2ccccc2)C(=O)O1 (stereo not given in full)
dose: 100.0 mg/kg/injection, schedule: Q04DX003 (ip), vehicle: Klucel (hydroxypropylcellulose) (HPC)
  T/C: 92 % of control
dose: 200.0 mg/kg/injection, schedule: Q04DX003 (ip), vehicle: Klucel (hydroxypropylcellulose) (HPC)
  T/C: 93 % of control
dose: 400.0 mg/kg/injection, schedule: Q04DX003 (ip), vehicle: Klucel (hydroxypropylcellulose) (HPC)
  T/C: 92 % of control

## CC1(OC(=O)c2ccccc2)CC2(CCCCC2)N=N1 (stereo not given)
dose: 12.5 mg/kg/injection, schedule: Q01DX009 (ip), vehicle: saline with Tween-80
  T/C: 113 % of control
dose: 25.0 mg/kg/injection, schedule: Q01DX009 (ip), vehicle: saline with Tween-80
  T/C: 105 % of control
[9]
  T/C: 112 % of control
[10]
  T/C: 107 % of control
[11]
  T/C: 105 % of control

## O=C1NN2CCN=C2c2ncccc21
[12]
  T/C: 104 % of control
[13]
  T/C: 94 % of control
[14]
  T/C: 87 % of control

## CCCCCCCC#CC1(CCCC)Sc2ccccc2N1C (stereo not given)
[12]
  T/C: 105 % of control
[13]
  T/C: 110 % of control
[14]
  T/C: 113 % of control

## CC(C)(C)c1cc(C(O)(C(F)(F)F)C(F)(F)F)c2c(c1)C(C(F)(F)F)(C(F)(F)F)OS2(=O)=O
dose: 25.0 mg/kg/injection, schedule: Q01DX005 (ip), vehicle: Klucel (hydroxypropylcellulose) (HPC)
  T/C: 93 % of control
[6]
  T/C: 103 % of control
[7]
  T/C: 92 % of control
[8]
  T/C: 91 % of control

## O=S(=O)(O)O.[NH-]CCC[NH-].[Pt+2]
dose: 6.25 mg/kg/injection, schedule: Q04DX002 (ip), vehicle: saline
  T/C: 168 % of control
dose: 12.5 mg/kg/injection, schedule: Q04DX002 (ip), vehicle: saline
  T/C: 158 % of control

## CC1(C)C=Cc2cc3c(cc2O1)OC[C@H]1c2cc4c(cc2O[C@@H]31)OCO4
dose: 25.0 mg/kg/injection, schedule: Q04DX002 (ip), vehicle: Klucel (hydroxypropylcellulose) (HPC)
  T/C: 97 % of control
dose: 50.0 mg/kg/injection, schedule: Q04DX002 (ip), vehicle: Klucel (hydroxypropylcellulose) (HPC)
  T/C: 100 % of control
dose: 100.0 mg/kg/injection, schedule: Q04DX002 (ip), vehicle: Klucel (hydroxypropylcellulose) (HPC)
  T/C: 100 % of control
dose: 400.0 mg/kg/injection, schedule: Q04DX002 (ip), vehicle: Klucel (hydroxypropylcellulose) (HPC)
  T/C: 89 % of control

## C=CCC1(C(C)C(O)c2cc(OC)c(OC)c(OC)c2)CC(O)C=CC12OCCO2 (stereo not given)
dose: 1.25 mg/kg/injection, schedule: Q01DX005 (ip), vehicle: acid diluted with saline
  T/C: 94 % of control
dose: 2.5 mg/kg/injection, schedule: Q01DX005 (ip), vehicle: acid diluted with saline
  T/C: 103 % of control
dose: 5.0 mg/kg/injection, schedule: Q01DX005 (ip), vehicle: acid diluted with saline
  T/C: 100 % of control
dose: 10.0 mg/kg/injection, schedule: Q01DX005 (ip), vehicle: acid diluted with saline
  T/C: 100 % of control

## CC#CCOCC1CO1 (stereo not given)
dose: 14.6 mg/kg/injection, schedule: Q01DX009 (ip), vehicle: saline
  T/C: 100 % of control
dose: 22.0 mg/kg/injection, schedule: Q01DX009 (ip), vehicle: saline
  T/C: 109 % of control
dose: 33.0 mg/kg/injection, schedule: Q01DX009 (ip), vehicle: saline
  T/C: 118 % of control
dose: 50.0 mg/kg/injection, schedule: Q01DX009 (ip), vehicle: saline
  T/C: 118 % of control

## CCCCCCCCCCCCCCCC(=O)N(CCCN(C)C)C1CCC(N(CCCN(C)C)C(=O)CCCCCCCCCCCCCCC)CC1 (stereo not given)
dose: 3.13 mg/kg/injection, schedule: Q01DX009 (ip), vehicle: saline sonified
  T/C: 90 % of control
dose: 6.25 mg/kg/injection, schedule: Q01DX009 (ip), vehicle: saline sonified
  T/C: 90 % of control
dose: 12.5 mg/kg/injection, schedule: Q01DX009 (ip), vehicle: saline sonified
  T/C: 90 % of control

## COCCOc1cccc2c1C(=O)c1ccccc1C2=O
[2]
  T/C: 102 % of control
[3]
  T/C: 91 % of control

## CC(CCc1ccc(O)cc1)NCCc1ccc(O)c(O)c1 (stereo not given)
dose: 50.0 mg/kg/injection, schedule: Q01DX009 (ip), vehicle: suspension in saline
  T/C: 100 % of control
dose: 100.0 mg/kg/injection, schedule: Q01DX009 (ip), vehicle: suspension in saline
  T/C: 104 % of control
dose: 200.0 mg/kg/injection, schedule: Q01DX009 (ip), vehicle: suspension in saline
  T/C: 115 % of control

## O=C1C(Sc2ccccc2)CCCC1Sc1ccccc1 (stereo not given)
dose: 25.0 mg/kg/injection, schedule: Q01DX009 (ip), vehicle: Klucel (hydroxypropylcellulose) (HPC)
  T/C: 109 % of control
[4]
  T/C: 100 % of control
[5]
  T/C: 98 % of control

## O=c1[nH]nc2ccc(n[nH]c1=O)c1ccccc21
dose: 3.13 mg/kg/injection, schedule: Q01DX005 (ip), vehicle: saline with Tween-80
  T/C: 104 % of control
dose: 6.25 mg/kg/injection, schedule: Q01DX005 (ip), vehicle: saline with Tween-80
  T/C: 107 % of control
dose: 12.5 mg/kg/injection, schedule: Q01DX005 (ip), vehicle: saline with Tween-80
  T/C: 99 % of control and 103 % of control
[1]
  T/C: 101 % of control
[2]
  T/C: 104 % of control and 107 % of control
